# Test results as given in the supplement of paper PMC10307832.
# Columns and labels:
# Assay in all cases: relative viability (nuclei count vs DMSO), 5 days (fraction); higher = more cells survive
# [1] = compound: C1=CC2=NC=CN=C2C=C1/C=C/3\C(=O)NC(=O)S3 + Cc1nc(NC(=O)N2CCC[C@H]2C(N)=O)sc1-c1ccnc(C(C)(C)C(F)(F)F)c1 [Alpelisib] (partner 2 µM)
# Procedure, shortened: (§1)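 Nuclei were stained with Hoechst during a one-step fixation (final 0.05% Triton X-100, 1% formaldehyde, 1 ug/ml Hoechst) carried out 5 days after dosing, then counted on 4× images. The cells, lung cancer lines in 1536-well plates, had been dosed by pin tool the day after seeding with one drug alone or a fixed anchor-drug dose plus five library-drug doses (not always all listed) in √10 steps. Relative viability is the nuclei count in treated wells divided by that in vehicle wells, and each value is the median of duplicate plates.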
# BGJ398 + Palbociclib = compound: CCN1CCN(c2ccc(Nc3cc(N(C)C(=O)Nc4c(Cl)c(OC)cc(OC)c4Cl)ncn3)cc2)CC1 [BGJ398] + CC(=O)c1c(C)c2cnc(Nc3ccc(N4CCNCC4)cn3)nc2n(C2CCCC2)c1=O [Palbociclib] (partner 0.5 µM)
# Procedure, shortened: as §1
# BGJ398 + AZD7762 = compound: CCN1CCN(c2ccc(Nc3cc(N(C)C(=O)Nc4c(Cl)c(OC)cc(OC)c4Cl)ncn3)cc2)CC1 [BGJ398] + NC(=O)Nc1cc(-c2cccc(F)c2)sc1C(=O)N[C@H]1CCCNC1 [AZD7762] (partner 0.2 µM)
# Procedure, shortened: as §1
# BGJ398 + Bortezomib = compound: CCN1CCN(c2ccc(Nc3cc(N(C)C(=O)Nc4c(Cl)c(OC)cc(OC)c4Cl)ncn3)cc2)CC1 [BGJ398] + CC(C)C[C@H](NC(=O)[C@H](Cc1ccccc1)NC(=O)c1cnccn1)B(O)O [Bortezomib] (partner 0.002 µM)
# Procedure, shortened: as §1
Cell Line,relative viability ([1]; first compound 0.02 µM),relative viability ([1]; first compound 0.06325 µM),relative viability ([1]; first compound 0.2 µM),relative viability ([1]; first compound 0.6325 µM),relative viability ([1]; first compound 2 µM),relative viability (BGJ398 + Palbociclib; first compound 0.01 µM),relative viability (BGJ398 + Palbociclib; first compound 0.03162 µM),relative viability (BGJ398 + Palbociclib; first compound 0.1 µM),relative viability (BGJ398 + Palbociclib; first compound 0.3162 µM),relative viability (BGJ398 + Palbociclib; first compound 1 µM),relative viability (BGJ398 + AZD7762; first compound 0.01 µM),relative viability (BGJ398 + AZD7762; first compound 0.03162 µM),relative viability (BGJ398 + AZD7762; first compound 0.1 µM),relative viability (BGJ398 + AZD7762; first compound 0.3162 µM),relative viability (BGJ398 + AZD7762; first compound 1 µM),relative viability (BGJ398 + Bortezomib; first compound 0.01 µM),relative viability (BGJ398 + Bortezomib; first compound 0.03162 µM),relative viability (BGJ398 + Bortezomib; first compound 0.1 µM),relative viability (BGJ398 + Bortezomib; first compound 0.3162 µM),relative viability (BGJ398 + Bortezomib; first compound 1 µM)
EMC-BAC-2,0.707,0.784,0.756,0.709,0.75,0.497,0.558,0.547,0.568,0.516,1.09,1.18,1.14,1.12,1.04,1.05,1,1.14,1.08,1.01
NCI-H2170,0.757,0.761,0.928,0.769,0.746,0.426,0.389,0.416,0.427,0.39,0.906,0.843,1.01,0.861,0.912,–,–,–,–,–
NCI-H1299,1.07,1.1,1.05,1.02,0.993,–,–,–,–,–,–,–,–,–,–,0.982,1.06,1.02,1.01,1.01
EBC-1,0.819,1.05,0.788,0.849,0.854,–,–,–,–,–,–,–,–,–,–,0.616,0.614,0.589,0.53,0.526
NCI-H2342,–,–,–,–,–,0.523,0.529,0.513,0.666,0.611,0.513,0.565,0.542,0.496,0.437,–,–,–,–,–
ChaGo-K-1,–,–,–,–,–,0.914,0.959,0.944,0.962,0.923,0.904,0.85,0.903,0.898,0.881,1.12,0.928,0.957,0.896,0.604
COR-L23,0.736,0.896,0.83,0.72,0.696,0.299,0.332,0.269,0.288,0.273,–,–,–,–,–,0.942,0.975,1.08,0.855,0.99
COR-L 105,1.22,0.861,0.901,1.02,0.751,0.47,0.357,0.445,0.378,0.383,–,–,–,–,–,0.717,0.514,0.703,0.792,0.73
LK-2,1.17,1.1,1.08,0.984,0.946,0.638,0.862,0.489,0.336,0.191,0.296,0.329,0.16,0.165,0.13,–,–,–,–,–
NCI-H596,0.486,0.451,0.469,0.537,0.502,–,–,–,–,–,1.1,0.993,0.893,0.911,0.799,0.988,0.72,0.96,1.04,0.769
NCI-H2023,0.57,0.609,0.587,0.606,0.511,0.341,0.493,0.285,0.456,0.404,–,–,–,–,–,0.966,1.07,0.978,0.883,1.12
NCI-H1944,0.856,0.763,0.853,0.776,0.8,0.29,0.333,0.347,0.337,0.344,0.561,0.536,0.484,0.439,0.516,–,–,–,–,–
NCI-H1793,0.655,0.811,0.728,0.709,0.742,0.321,0.271,0.286,0.237,0.309,0.466,0.406,0.473,0.434,0.419,–,–,–,–,–
NCI-H520,0.866,0.948,0.822,0.877,1.01,0.216,0.19,0.147,0.142,0.161,–,–,–,–,–,0.538,0.54,0.259,0.201,0.162
A549,0.847,1.1,0.67,0.729,0.557,–,–,–,–,–,–,–,–,–,–,–,–,–,–,–
NCI-H358,0.953,0.955,0.87,0.791,0.547,0.139,0.145,0.133,0.13,0.145,–,0.473,0.591,0.507,0.725,–,–,–,–,–
NCI-H1563,0.962,0.941,0.964,0.941,1.01,–,–,–,–,–,–,–,–,–,–,0.931,0.802,0.778,0.674,0.71
NCI-H1395,0.934,1.14,1.32,0.922,1.39,0.603,0.587,0.464,0.458,0.481,0.372,0.366,0.355,0.352,0.352,–,–,–,–,–
NCI-H2009,1.24,1.21,1.17,1.18,1.21,0.268,0.222,0.197,0.268,0.241,–,–,–,–,–,0.918,1.09,0.955,0.978,1.14
SW 900,–,–,–,–,–,0.52,0.528,0.534,0.453,0.528,0.757,0.514,0.572,0.36,0.532,–,–,–,–,–
IA-LM,0.586,0.713,0.64,0.749,0.764,–,–,–,–,–,–,–,–,–,–,0.741,0.928,0.905,0.822,0.788
SK-LU-1,1.01,1.5,1.21,1.05,0.968,0.394,0.47,0.384,0.339,0.346,–,–,–,–,–,1.11,1.27,1.51,1.14,1.14
NCI-H1703,0.362,0.306,0.296,0.386,0.267,–,–,–,–,–,0.117,0.136,0.111,0.122,0.123,0.451,0.467,0.253,0.261,0.457
NCI-H1648,–,–,–,–,–,0.266,–,0.256,0.273,0.227,0.873,–,0.759,0.55,0.387,–,–,–,–,–
